The source made the active and inactive calls.
What was measured:
Clostridioides difficile [1] = assay: Antibacterial activity against Clostridium difficile BAA-1803 assessed as inhibition of bacterial growth by broth microdilution method; format: functional
Clostridioides difficile [2] = assay: Antibacterial activity against Clostridium difficile NR49294 assessed as inhibition of bacterial growth by broth microdilution method; format: functional
Clostridioides difficile [3] = assay: Antibacterial activity against Clostridium difficile NR49318 assessed as inhibition of bacterial growth by broth microdilution method; format: functional
Clostridioides difficile [4] = assay: Antibacterial activity against Clostridium difficile NR49292 assessed as inhibition of bacterial growth by broth microdilution method; format: functional
Staphylococcus aureus [5] = assay: Antibacterial activity against vancomycin-resistant Staphylococcus aureus clinical isolate 1 assessed as inhibition of bacterial growth by broth microdilution method; format: functional
Bacteroides fragilis = assay: Antibacterial activity against Bacteroides fragilis HM-709 assessed as inhibition of bacterial growth by broth microdilution method; format: functional
Bifidobacterium longum = assay: Antibacterial activity against Bifidobacterium longum HM-846 assessed as inhibition of bacterial growth by broth microdilution method; format: functional
Fusobacterium nucleatum = assay: Antibacterial activity against Fusobacterium nucleatum HM-992 assessed as inhibition of bacterial growth by broth microdilution method; format: functional
Clostridioides difficile [6] = assay: Antibacterial activity against Clostridium difficile ATCC 43255 assessed as as time duration of post-antibiotic effect for suppression of bacterial growth at 4 times MIC incubated for 1 hr in broth solution; format: functional
Clostridioides difficile [7] = assay: Antibacterial activity against Clostridium difficile ATCC 43255 assessed as damage in cell wall at 8 time MIC incubated for 24 hrs by scanning electron microscopy based analysis; format: functional, organism-based
THP-1 = assay: Cytotoxicity against human THP-1 cells assessed as increase in LDH release incubate for 24 hrs by trypan-blue staining based analysis; format: functional, cell-based; details: THP-1, 24 h
[8] = Selectivity ratio of IC50 for human THP-1 cells to MIC for Clostridium difficile ATCC 43255; format: toxicity
Clostridioides difficile [9] = assay: Antibacterial activity against Clostridium difficile ATCC 43255 assessed as inhibition of bacterial growth by broth microdilution method; format: functional
Clostridioides difficile [10] = assay: Antibacterial activity against Clostridium difficile BAA-1870 assessed as inhibition of bacterial growth by broth microdilution method; format: functional
Clostridioides difficile [11] = assay: Antibacterial activity against Clostridium difficile NR49310 assessed as inhibition of bacterial growth by broth microdilution method; format: functional
Clostridioides difficile [12] = assay: Antibacterial activity against Clostridium difficile NR49305 assessed as inhibition of bacterial growth by broth microdilution method; format: functional
Clostridioides difficile [13] = assay: Antibacterial activity against Clostridium difficile NR49302 assessed as inhibition of bacterial growth by broth microdilution method; format: functional
Clostridioides difficile [14] = assay: Antibacterial activity against Clostridium difficile 26675 assessed as inhibition of bacterial growth by broth microdilution method; format: functional
Clostridioides difficile [15] = assay: Antibacterial activity against Clostridium difficile 24531 assessed as inhibition of bacterial growth by broth microdilution method; format: functional
Staphylococcus aureus [16] = assay: Antibacterial activity against Staphylococcus aureus ATCC 29213 assessed as inhibition of bacterial growth by broth microdilution method; format: functional
Staphylococcus aureus [17] = assay: Antibacterial activity against Staphylococcus aureus ATCC 27660 assessed as inhibition of bacterial growth by broth microdilution method; format: functional
Staphylococcus aureus [18] = assay: Antibacterial activity against Staphylococcus aureus NRS100 assessed as inhibition of bacterial growth by broth microdilution method; format: functional
Staphylococcus aureus [19] = assay: Antibacterial activity against Staphylococcus aureus NRS119 assessed as inhibition of bacterial growth by broth microdilution method; format: functional
Staphylococcus aureus [20] = assay: Antibacterial activity against Staphylococcus aureus NRS120 assessed as inhibition of bacterial growth by broth microdilution method; format: functional
Staphylococcus aureus [21] = assay: Antibacterial activity against vancomycin-resistant Staphylococcus aureus clinical isolate 2 assessed as inhibition of bacterial growth by broth microdilution method; format: functional
[22] = test system: Staphylococcus epidermidis; assay: Antibacterial activity against Staphylococcus epidermidis ATCC 35547 assessed as inhibition of bacterial growth by broth microdilution method; format: functional
[23] = test system: Staphylococcus haemolyticus; assay: Antibacterial activity against Staphylococcus haemolyticus ATCC 29970 assessed as inhibition of bacterial growth by broth microdilution method; format: functional
Streptococcus oralis = assay: Antibacterial activity against Streptococcus oralis ATCC 9811 assessed as inhibition of bacterial growth by broth microdilution method; format: functional
Streptococcus pyogenes = assay: Antibacterial activity against Streptococcus pyogenes ATCC 49399 assessed as inhibition of bacterial growth by broth microdilution method; format: functional
Bacillus cereus = assay: Antibacterial activity against Bacillus cereus ATCC 13061 assessed as inhibition of bacterial growth by broth microdilution method; format: functional
Bacillus licheniformis = assay: Antibacterial activity against Bacillus licheniformis ATCC 12759 assessed as inhibition of bacterial growth by broth microdilution method; format: functional
Enterococcus faecalis [24] = assay: Antibacterial activity against Enterococcus faecalis ATCC 29212 assessed as inhibition of bacterial growth by broth microdilution method; format: functional
Enterococcus faecalis [25] = assay: Antibacterial activity against vancomycin susceptible Enterococcus faecalis 201 assessed as inhibition of bacterial growth by broth microdilution method; format: functional
Enterococcus faecalis [26] = assay: Antibacterial activity against vancomycin resistant Enterococcus faecalis 99 assessed as inhibition of bacterial growth by broth microdilution method; format: functional
Enterococcus faecium [27] = assay: Antibacterial activity against vancomycin susceptible Enterococcus faecium119-39A assessed as inhibition of bacterial growth by broth microdilution method; format: functional; details: 119-39A
Enterococcus faecium [28] = assay: Antibacterial activity against vancomycin resistant Enterococcus faecium 106 assessed as inhibition of bacterial growth by broth microdilution method; format: functional
Enterococcus faecium [29] = assay: Antibacterial activity against Enterococcus faecium NCTC 7171 assessed as inhibition of bacterial growth by broth microdilution method; format: functional
Corynebacterium sp. = assay: Antibacterial activity against Corynebacterium sp. HM-784 assessed as inhibition of bacterial growth by broth microdilution method; format: functional
[30] = test system: Limosilactobacillus reuteri; assay: Antibacterial activity against Lactobacillus reuteri HM-102 assessed as inhibition of bacterial growth by broth microdilution method; format: functional
Lactobacillus gasseri = assay: Antibacterial activity against Lactobacillus gasseri HM-644 assessed as inhibition of bacterial growth by broth microdilution method; format: functional
Veillonella = assay: Antibacterial activity against Veillonella HM-49 assessed as inhibition of bacterial growth by broth microdilution method; format: functional
Eubacterium sp. = assay: Antibacterial activity against Eubacterium sp. HM-178 assessed as inhibition of bacterial growth by broth microdilution method; format: functional
Klebsiella pneumoniae = assay: Antibacterial activity against Klebsiella pneumoniae ATCC700603 assessed as inhibition of bacterial growth by broth microdilution method; format: functional
Acinetobacter baumannii = assay: Antibacterial activity against Acinetobacter baumannii ATCC17961 assessed as inhibition of bacterial growth by broth microdilution method; format: functional
Pseudomonas aeruginosa = assay: Antibacterial activity against Pseudomonas aeruginosa ATCC27853 assessed as inhibition of bacterial growth by broth microdilution method; format: functional
Klebsiella aerogenes = assay: Antibacterial activity against Klebsiella aerogenes ATCC35029 assessed as inhibition of bacterial growth by broth microdilution method; format: functional
Escherichia coli = assay: Antibacterial activity against Escherichia coli ATCC25922 assessed as inhibition of bacterial growth by broth microdilution method; format: functional
Clostridioides difficile [31] = assay: Antibacterial activity against Clostridium difficile 23828 assessed as inhibition of bacterial growth by broth microdilution method; format: functional

CN[C@H](CC(C)C)C(=O)N[C@H]1C(=O)N[C@@H](CC(N)=O)C(=O)N[C@H]2C(=O)N[C@H]3C(=O)N[C@H](C(=O)N[C@H](C(=O)O)c4cc(O)cc(O)c4-c4cc3ccc4O)[C@H](O)c3ccc(c(Cl)c3)Oc3cc2cc(c3O[C@@H]2O[C@H](CO)[C@@H](O)[C@H](O)[C@H]2O[C@H]2C[C@](C)(N)[C@H](O)[C@H](C)O2)Oc2ccc(cc2Cl)[C@H]1O [VANCOMYCIN]
active: Activity (Clostridioides difficile [7])
2 µg/mL: MIC (Clostridioides difficile [1])
64 µg/mL: MIC (Staphylococcus aureus [5])
0.25 µg/mL: MIC (Clostridioides difficile [2]) | MIC (Clostridioides difficile [3]) | MIC (Clostridioides difficile [4]) | MIC (Bifidobacterium longum) | MIC (Fusobacterium nucleatum)
3 h: Time (Clostridioides difficile [6])
16 µg/mL: MIC (Bacteroides fragilis)

FC(F)(F)c1ccc(Oc2ccc(-c3noc(-c4ccc5[nH]ccc5c4)n3)cc2)cc1
1 µg/mL: MIC (Clostridioides difficile [2]) | MIC (Enterococcus faecium [27]) | MIC (Fusobacterium nucleatum)
> 128 µg/mL: MIC [30] | MIC (Lactobacillus gasseri) | MIC (Veillonella) | MIC (Klebsiella pneumoniae) | MIC (Acinetobacter baumannii) | MIC (Pseudomonas aeruginosa) | MIC (Klebsiella aerogenes) | MIC (Escherichia coli)
0.25 µg/mL: MIC (Bifidobacterium longum)
17: selectivity ratio [8]
2 µg/mL: MIC (Clostridioides difficile [9]) | MIC (Clostridioides difficile [1]) | MIC (Clostridioides difficile [11]) | MIC (Clostridioides difficile [3]) | MIC (Clostridioides difficile [4]) | MIC (Clostridioides difficile [13]) | MIC (Staphylococcus aureus [18]) | MIC (Staphylococcus aureus [19]) | MIC (Staphylococcus aureus [20]) | MIC (Staphylococcus aureus [5]) | MIC (Staphylococcus aureus [21]) | MIC [22] | MIC (Enterococcus faecium [28]) | MIC (Enterococcus faecium [29]) | MIC (Corynebacterium sp.) | MIC (Eubacterium sp.)
16 µg/mL: MIC (Bacillus cereus)
69 µg/mL: IC50 (THP-1)
128 µg/mL: MIC (Streptococcus oralis)
8 µg/mL: MIC [23] | MIC (Bacillus licheniformis) | MIC (Enterococcus faecalis [24])
4 µg/mL: MIC (Clostridioides difficile [10]) | MIC (Clostridioides difficile [12]) | MIC (Clostridioides difficile [14]) | MIC (Clostridioides difficile [15]) | MIC (Staphylococcus aureus [16]) | MIC (Staphylococcus aureus [17]) | MIC (Enterococcus faecalis [25]) | MIC (Enterococcus faecalis [26]) | MIC (Bacteroides fragilis)
64 µg/mL: MIC (Streptococcus pyogenes)

Oc1ccc(-c2nc(-c3ccc(OC4CCCC4)cc3)no2)cc1
18 µg/mL: IC50 (THP-1)
2 µg/mL: MIC (Clostridioides difficile [9]) | MIC (Clostridioides difficile [10]) | MIC (Clostridioides difficile [2]) | MIC (Clostridioides difficile [12]) | MIC (Clostridioides difficile [4]) | MIC (Clostridioides difficile [13]) | MIC (Staphylococcus aureus [16]) | MIC (Staphylococcus aureus [17]) | MIC (Staphylococcus aureus [20]) | MIC (Staphylococcus aureus [5]) | MIC (Staphylococcus aureus [21]) | MIC [22] | MIC [23] | MIC (Bacillus cereus) | MIC (Enterococcus faecium [27]) | MIC (Enterococcus faecium [28]) | MIC (Bacteroides fragilis) | MIC (Fusobacterium nucleatum)
1 µg/mL: MIC (Staphylococcus aureus [18]) | MIC (Staphylococcus aureus [19]) | MIC (Bifidobacterium longum)
4 µg/mL: MIC (Clostridioides difficile [11]) | MIC (Clostridioides difficile [3]) | MIC (Clostridioides difficile [14]) | MIC (Clostridioides difficile [31]) | MIC (Clostridioides difficile [15]) | MIC (Bacillus licheniformis) | MIC (Enterococcus faecalis [24]) | MIC (Enterococcus faecalis [25]) | MIC (Enterococcus faecalis [26]) | MIC (Enterococcus faecium [29]) | MIC (Eubacterium sp.)
> 128 µg/mL: MIC (Streptococcus oralis) | MIC (Streptococcus pyogenes) | MIC [30] | MIC (Lactobacillus gasseri) | MIC (Veillonella) | MIC (Klebsiella pneumoniae) | MIC (Acinetobacter baumannii) | MIC (Pseudomonas aeruginosa) | MIC (Klebsiella aerogenes) | MIC (Escherichia coli)

Source: ChEMBL document CHEMBL5370591, “A Potent and Narrow-Spectrum Antibacterial against Clostridioides difficile Infection” (J Med Chem, 2023)
